{"source": "patent EP0055702B1", "about": "“Antithrombotic treatment” (priority 1980, dated 1982)", "type_in_all_cases": "biochemical", "key": {"Fibrinogen": {"biological_target": "T1, Fibrinogen (Homo sapiens, UniProt P02671+P02675+P02679)", "T1 construct": "from tissue; host or cells: human plasma", "T1 sequence (P02671 20-629 limits assumed)": "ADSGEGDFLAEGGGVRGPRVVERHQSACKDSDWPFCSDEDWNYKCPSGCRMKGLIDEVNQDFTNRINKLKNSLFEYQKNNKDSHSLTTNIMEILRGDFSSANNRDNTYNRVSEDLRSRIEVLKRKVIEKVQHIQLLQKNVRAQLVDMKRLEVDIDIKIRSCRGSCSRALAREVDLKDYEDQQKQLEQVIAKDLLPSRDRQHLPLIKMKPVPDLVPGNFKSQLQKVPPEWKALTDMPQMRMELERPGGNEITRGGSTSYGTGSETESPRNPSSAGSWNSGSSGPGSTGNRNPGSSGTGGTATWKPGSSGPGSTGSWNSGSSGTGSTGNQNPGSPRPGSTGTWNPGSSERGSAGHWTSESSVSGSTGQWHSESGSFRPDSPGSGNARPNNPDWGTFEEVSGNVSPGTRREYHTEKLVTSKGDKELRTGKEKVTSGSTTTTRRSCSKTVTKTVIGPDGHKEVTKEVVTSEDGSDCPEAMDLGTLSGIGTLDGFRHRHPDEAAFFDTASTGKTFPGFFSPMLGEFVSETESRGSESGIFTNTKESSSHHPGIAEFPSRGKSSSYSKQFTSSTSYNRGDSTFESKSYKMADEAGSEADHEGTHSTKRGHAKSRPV", "T1 sequence (P02675 31-491)": "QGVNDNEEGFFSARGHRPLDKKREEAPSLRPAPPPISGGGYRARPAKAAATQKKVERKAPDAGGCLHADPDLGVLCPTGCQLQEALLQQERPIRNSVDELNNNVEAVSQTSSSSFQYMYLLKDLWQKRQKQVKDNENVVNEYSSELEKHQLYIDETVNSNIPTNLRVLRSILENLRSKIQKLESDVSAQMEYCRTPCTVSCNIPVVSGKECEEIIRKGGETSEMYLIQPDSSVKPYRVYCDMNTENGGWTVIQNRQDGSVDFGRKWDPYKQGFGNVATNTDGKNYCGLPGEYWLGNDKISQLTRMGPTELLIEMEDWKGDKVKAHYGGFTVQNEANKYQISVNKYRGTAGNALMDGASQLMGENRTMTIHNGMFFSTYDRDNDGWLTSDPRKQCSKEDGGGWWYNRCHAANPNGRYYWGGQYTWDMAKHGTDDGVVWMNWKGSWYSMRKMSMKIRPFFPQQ", "T1 sequence (P02679 27-453)": "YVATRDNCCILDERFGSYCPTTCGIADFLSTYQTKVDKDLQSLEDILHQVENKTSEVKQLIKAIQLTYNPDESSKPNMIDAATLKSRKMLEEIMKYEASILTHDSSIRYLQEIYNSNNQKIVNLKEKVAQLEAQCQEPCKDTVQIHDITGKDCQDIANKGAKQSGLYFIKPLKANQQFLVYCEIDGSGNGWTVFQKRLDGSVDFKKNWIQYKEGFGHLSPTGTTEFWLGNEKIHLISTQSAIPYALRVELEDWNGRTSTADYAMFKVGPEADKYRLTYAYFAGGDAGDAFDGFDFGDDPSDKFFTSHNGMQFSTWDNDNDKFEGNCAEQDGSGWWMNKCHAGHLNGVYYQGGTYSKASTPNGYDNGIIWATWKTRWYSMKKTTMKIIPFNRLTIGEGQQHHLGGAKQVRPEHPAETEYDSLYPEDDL", "experiment": "Fibrinogen assay, Example 4", "settings": "Control 218; for Fibrogen: solution D", "from_the_text": "(§1) The evaluation procedure used is that described in \"Human Blood Coagulation, Haemostasis and Thrombosis\", edited by Rosemary Biggs, published by Blackwell Scientific Publications, Oxford, England (2nd Edition), pages 670-705, 1976. […]"}, "F VII": {"biological_target": "T2, F VII (Homo sapiens, UniProt P08709)", "T2 construct": "from tissue; host or cells: human plasma", "T2 sequence (P08709 61-466)": "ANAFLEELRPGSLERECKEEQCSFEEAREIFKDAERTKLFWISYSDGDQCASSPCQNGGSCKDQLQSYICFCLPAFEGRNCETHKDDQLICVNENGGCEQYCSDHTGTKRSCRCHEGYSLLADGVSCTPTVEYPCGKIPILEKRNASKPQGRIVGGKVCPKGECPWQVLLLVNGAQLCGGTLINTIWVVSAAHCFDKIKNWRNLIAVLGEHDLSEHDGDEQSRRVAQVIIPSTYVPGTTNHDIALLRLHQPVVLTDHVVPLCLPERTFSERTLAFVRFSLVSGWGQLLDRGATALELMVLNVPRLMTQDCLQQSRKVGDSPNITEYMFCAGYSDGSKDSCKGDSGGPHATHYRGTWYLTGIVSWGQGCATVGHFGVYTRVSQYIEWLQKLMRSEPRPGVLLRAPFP", "experiment": "Factor VII assay, Example 4", "settings": "for F VII: Control 73", "from_the_text": "as §1"}, "F VIII": {"biological_target": "T3, F VIII (Homo sapiens, UniProt P00451)", "T3 construct": "from tissue; host or cells: human plasma", "T3 sequence (P00451 20-2351)": "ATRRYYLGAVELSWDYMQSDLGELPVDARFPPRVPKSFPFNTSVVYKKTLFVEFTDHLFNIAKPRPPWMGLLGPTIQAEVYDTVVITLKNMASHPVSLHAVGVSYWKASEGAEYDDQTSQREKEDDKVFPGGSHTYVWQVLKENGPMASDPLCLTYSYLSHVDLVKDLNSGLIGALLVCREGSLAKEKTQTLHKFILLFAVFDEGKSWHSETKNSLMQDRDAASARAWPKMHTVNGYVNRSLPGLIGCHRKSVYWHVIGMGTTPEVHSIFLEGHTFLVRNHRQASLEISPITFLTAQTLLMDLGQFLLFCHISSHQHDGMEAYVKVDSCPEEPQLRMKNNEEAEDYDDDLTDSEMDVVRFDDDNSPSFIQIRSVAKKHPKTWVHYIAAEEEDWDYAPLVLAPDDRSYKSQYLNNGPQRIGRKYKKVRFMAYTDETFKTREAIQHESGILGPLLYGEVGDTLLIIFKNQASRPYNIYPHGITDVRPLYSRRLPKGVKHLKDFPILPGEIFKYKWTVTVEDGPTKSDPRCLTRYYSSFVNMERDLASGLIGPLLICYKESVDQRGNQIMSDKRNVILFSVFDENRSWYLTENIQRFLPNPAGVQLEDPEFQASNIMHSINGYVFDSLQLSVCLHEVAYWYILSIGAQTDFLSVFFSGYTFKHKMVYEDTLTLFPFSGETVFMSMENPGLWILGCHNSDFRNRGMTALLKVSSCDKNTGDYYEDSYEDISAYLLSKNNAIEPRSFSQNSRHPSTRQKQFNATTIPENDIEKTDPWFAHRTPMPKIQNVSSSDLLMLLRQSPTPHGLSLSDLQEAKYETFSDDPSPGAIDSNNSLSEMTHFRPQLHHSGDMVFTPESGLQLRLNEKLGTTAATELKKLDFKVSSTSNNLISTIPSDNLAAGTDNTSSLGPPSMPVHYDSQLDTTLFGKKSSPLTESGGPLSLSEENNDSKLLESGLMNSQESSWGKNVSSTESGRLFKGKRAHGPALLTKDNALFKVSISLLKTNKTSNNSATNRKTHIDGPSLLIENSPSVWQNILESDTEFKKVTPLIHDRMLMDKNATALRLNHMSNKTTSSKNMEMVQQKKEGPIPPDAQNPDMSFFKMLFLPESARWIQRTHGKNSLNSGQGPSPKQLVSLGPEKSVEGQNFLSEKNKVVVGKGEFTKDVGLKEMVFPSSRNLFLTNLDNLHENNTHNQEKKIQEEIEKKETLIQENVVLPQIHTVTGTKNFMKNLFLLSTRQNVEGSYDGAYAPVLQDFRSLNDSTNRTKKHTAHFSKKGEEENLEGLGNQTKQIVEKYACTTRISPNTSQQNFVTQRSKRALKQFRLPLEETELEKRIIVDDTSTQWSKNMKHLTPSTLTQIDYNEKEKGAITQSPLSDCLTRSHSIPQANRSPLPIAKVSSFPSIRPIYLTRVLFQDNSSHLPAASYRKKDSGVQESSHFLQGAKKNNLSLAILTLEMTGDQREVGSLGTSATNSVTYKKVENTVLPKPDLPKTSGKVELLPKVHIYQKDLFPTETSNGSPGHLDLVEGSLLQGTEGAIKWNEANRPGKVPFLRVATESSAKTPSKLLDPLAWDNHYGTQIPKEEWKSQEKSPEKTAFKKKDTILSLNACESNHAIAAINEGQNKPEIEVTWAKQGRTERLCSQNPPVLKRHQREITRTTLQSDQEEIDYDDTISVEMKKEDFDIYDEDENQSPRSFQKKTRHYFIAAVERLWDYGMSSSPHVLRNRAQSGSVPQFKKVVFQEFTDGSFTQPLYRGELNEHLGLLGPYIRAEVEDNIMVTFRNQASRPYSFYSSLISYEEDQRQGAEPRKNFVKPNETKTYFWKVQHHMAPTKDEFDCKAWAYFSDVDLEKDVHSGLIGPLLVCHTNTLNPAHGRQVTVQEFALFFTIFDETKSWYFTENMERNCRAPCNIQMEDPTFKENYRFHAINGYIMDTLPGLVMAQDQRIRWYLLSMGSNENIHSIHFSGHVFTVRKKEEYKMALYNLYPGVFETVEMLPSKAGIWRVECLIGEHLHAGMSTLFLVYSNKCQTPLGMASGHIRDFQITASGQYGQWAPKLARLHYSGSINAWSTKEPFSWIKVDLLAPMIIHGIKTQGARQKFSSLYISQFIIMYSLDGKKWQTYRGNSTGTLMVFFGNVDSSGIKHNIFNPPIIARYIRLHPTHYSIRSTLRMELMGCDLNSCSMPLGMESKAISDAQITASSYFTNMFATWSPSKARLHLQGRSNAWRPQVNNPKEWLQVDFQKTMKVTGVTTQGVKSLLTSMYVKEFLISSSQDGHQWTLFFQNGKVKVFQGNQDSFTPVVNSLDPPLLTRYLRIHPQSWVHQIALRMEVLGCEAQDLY", "experiment": "Factor VIII assay, Example 4", "settings": "for F VIII: Control 57", "from_the_text": "as §1"}, "F XI": {"biological_target": "T4, F XI (Homo sapiens, UniProt P03951)", "T4 construct": "from tissue; host or cells: human plasma", "T4 sequence (P03951 19-625)": "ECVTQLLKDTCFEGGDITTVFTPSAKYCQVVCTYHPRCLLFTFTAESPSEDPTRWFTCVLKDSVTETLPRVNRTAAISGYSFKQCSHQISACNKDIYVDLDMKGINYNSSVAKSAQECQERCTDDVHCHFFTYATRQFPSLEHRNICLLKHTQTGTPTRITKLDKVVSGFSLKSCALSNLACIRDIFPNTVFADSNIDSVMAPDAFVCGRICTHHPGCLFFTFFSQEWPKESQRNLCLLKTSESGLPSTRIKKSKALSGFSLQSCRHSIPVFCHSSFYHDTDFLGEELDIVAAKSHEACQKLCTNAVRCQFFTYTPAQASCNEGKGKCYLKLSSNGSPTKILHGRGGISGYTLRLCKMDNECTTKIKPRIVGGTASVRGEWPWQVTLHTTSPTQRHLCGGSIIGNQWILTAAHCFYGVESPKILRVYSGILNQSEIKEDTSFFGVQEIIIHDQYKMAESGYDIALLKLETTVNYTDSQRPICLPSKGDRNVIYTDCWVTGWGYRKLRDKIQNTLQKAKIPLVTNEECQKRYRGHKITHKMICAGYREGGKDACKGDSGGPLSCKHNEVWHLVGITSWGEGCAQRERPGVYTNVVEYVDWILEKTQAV", "experiment": "Factor XI assay, Example 4", "settings": "for F XI: Control 117", "from_the_text": "as §1"}, "human plasma": {"tested_on": "human plasma", "experiment": "Blood coagulation factors by standard procedures (Biggs), human plasma", "settings": "5 mg/ml", "description": "The effect of U.S.P. grade sodium bisulphite on blood coagulation factors was evaluated by standard procedures (Biggs) and the results are shown in Table III below.\nThe effect is directly proportional to dose."}, "[1]": {"settings": "chemical grade sodium bisulphite 0.01 mg/ml"}, "[2]": {"settings": "chemical grade sodium bisulphite 0.05 mg/ml"}, "[3]": {"settings": "chemical grade sodium bisulphite 0.1 mg/ml"}, "[4]": {"settings": "chemical grade sodium bisulphite 0.5 mg/ml"}, "[5]": {"settings": "chemical grade sodium bisulphite 1.0 mg/ml"}, "[6]": {"settings": "chemical grade sodium bisulphite 5.0 mg/ml"}, "[7]": {"settings": "Sodium bisulphite 0.01 mg/ml, solution D"}, "[8]": {"settings": "Sodium bisulphite 0.05 mg/ml, solution D"}, "[9]": {"settings": "Sodium bisulphite 0.1 mg/ml, solution D"}, "[10]": {"settings": "Sodium bisulphite 0.5 mg/ml, solution D"}, "[11]": {"settings": "Sodium bisulphite 1.0 mg/ml, solution D"}, "[12]": {"settings": "Sodium bisulphite 5.0 mg/ml, solution D"}}}
{"substance": "Sodium bisulphite", "values": [{"measurement": "Fibrogen", "setting": "Fibrinogen; Sodium bisulphite 0.01 mg/ml", "value": 222, "unit": "mg%"}, {"measurement": "Fibrogen", "setting": "Fibrinogen; Sodium bisulphite 0.05 mg/ml", "value": 228, "unit": "mg%"}, {"measurement": "Fibrogen", "setting": "Fibrinogen; Sodium bisulphite 0.1 mg/ml", "value": 217, "unit": "mg%"}, {"measurement": "Fibrogen", "setting": "Fibrinogen; Sodium bisulphite 0.5 mg/ml", "value": 190, "unit": "mg%"}, {"measurement": "Fibrogen", "setting": "Fibrinogen; Sodium bisulphite 1.0 mg/ml", "value": 185, "unit": "mg%"}, {"measurement": "Fibrogen", "setting": "Fibrinogen; Sodium bisulphite 5.0 mg/ml", "value": 130, "unit": "mg%"}, {"measurement": "Fibrinogen", "setting": "Fibrinogen; [1]", "value": 228, "unit": "mg%"}, {"measurement": "Fibrinogen", "setting": "Fibrinogen; [2]", "value": 245, "unit": "mg%"}, {"measurement": "Fibrinogen", "setting": "Fibrinogen; [3]", "value": 218, "unit": "mg%"}, {"measurement": "Fibrinogen", "setting": "Fibrinogen; [4]", "value": 182, "unit": "mg%"}, {"measurement": "Fibrinogen", "setting": "Fibrinogen; [5]", "value": 184, "unit": "mg%"}, {"measurement": "Fibrinogen", "setting": "Fibrinogen; [6]", "value": 119, "unit": "mg%"}, {"measurement": "effect on Factor VII", "setting": "F VII; 0.5 mg per ml, human plasma", "value": "significant inhibitory effect"}, {"measurement": "F VII", "setting": "F VII; [7]", "value": 67, "unit": "%"}, {"measurement": "F VII", "setting": "F VII; [8]", "value": 57, "unit": "%"}, {"measurement": "F VII", "setting": "F VII; [9]", "value": 51, "unit": "%"}, {"measurement": "F VII", "setting": "F VII; [10]", "value": 23, "unit": "%"}, {"measurement": "F VII", "setting": "F VII; [11]", "value": 8, "unit": "%"}, {"measurement": "F VII", "setting": "F VII; [12]", "value": 1, "unit": "%"}, {"measurement": "F VII", "setting": "F VII; [1]", "value": 62}, {"measurement": "F VII", "setting": "F VII; [2]", "value": 63}, {"measurement": "F VII", "setting": "F VII; [3]", "value": 53}, {"measurement": "F VII", "setting": "F VII; [4]", "value": 17}, {"measurement": "F VII", "setting": "F VII; [5]", "value": 7}, {"measurement": "F VII", "setting": "F VII; [6]", "value": 2}, {"measurement": "F VIII", "setting": "F VIII; [7]", "value": 62, "unit": "%"}, {"measurement": "F VIII", "setting": "F VIII; [8]", "value": 68, "unit": "%"}, {"measurement": "F VIII", "setting": "F VIII; [9]", "value": 55, "unit": "%"}, {"measurement": "F VIII", "setting": "F VIII; [10]", "value": 58, "unit": "%"}, {"measurement": "F VIII", "setting": "F VIII; [11]", "value": 29, "unit": "%"}, {"measurement": "F VIII", "setting": "F VIII; [12]", "value": 11, "unit": "%"}, {"measurement": "F VIII", "setting": "F VIII; [1]", "value": 58}, {"measurement": "F VIII", "setting": "F VIII; [2]", "value": 55}, {"measurement": "F VIII", "setting": "F VIII; [3]", "value": 56}, {"measurement": "F VIII", "setting": "F VIII; [4]", "value": 55}, {"measurement": "F VIII", "setting": "F VIII; [5]", "value": 31}, {"measurement": "F VIII", "setting": "F VIII; [6]", "value": 13}, {"measurement": "effect on Factor VIII", "setting": "F VIII; human plasma", "value": "mildly affected"}, {"measurement": "effect on Factor XI", "setting": "F XI; 0.5 mg per ml, human plasma", "value": "significant inhibitory effect"}, {"measurement": "F XI", "setting": "F XI; [7]", "value": 98, "unit": "%"}, {"measurement": "F XI", "setting": "F XI; [8]", "value": 81, "unit": "%"}, {"measurement": "F XI", "setting": "F XI; [9]", "value": 58, "unit": "%"}, {"measurement": "F XI", "setting": "F XI; [10]", "value": 27, "unit": "%"}, {"measurement": "F XI", "setting": "F XI; [11]", "value": 4, "unit": "%"}, {"measurement": "F XI", "setting": "F XI; [12]", "value": "<1", "unit": "%"}, {"measurement": "F XI", "setting": "F XI; [1]", "value": 83}, {"measurement": "F XI", "setting": "F XI; [2]", "value": 82}, {"measurement": "F XI", "setting": "F XI; [3]", "value": 55}, {"measurement": "F XI", "setting": "F XI; [4]", "value": 24}, {"measurement": "F XI", "setting": "F XI; [5]", "value": 2}, {"measurement": "F XI", "setting": "F XI; [6]", "value": "<1"}, {"measurement": "coagulation of human plasma", "setting": "human plasma", "value": "completely disrupted"}]}
